Source: patent US20170190671A1, “BIS(ARYL)CATECHOL DERIVATIVES AS HERBICIDES” (E I DU PONT DE NEMOURS AND COMPANY, priority 2014, published 2017)

Tests used:
Experiment in all cases: Test D preemergence
Assay type in all cases: in vivo
Details in all cases: scale 0 to 100
[1] = system: deadnettle (henbit deadnettle, Lamium amplexicaule)
Summary of the method: (§1)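 Greenhouse herbicide screen. Pre: silt loam, spray at planting. Post: 1–4 leaf, 2–18 cm. Readout: visual % control (0–100) at 14–21 DAT vs controls.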

[2] = system: chickweed (common chickweed, Stellaria media)
Summary of the method: as §1

[3] = system: spring barley (Hordeum vulgare)
Summary of the method: as §1

[4] = system: chamomile (scentless chamomile, Matricaria inodora)
Summary of the method: as §1

[5] = system: canarygrass (Phalaris minor)
Summary of the method: as §1

[6] = system: kochia (Kochia scoparia)
Summary of the method: as §1

[7] = system: bluegrass (annual bluegrass, Poa annua)
Summary of the method: as §1

[8] = system: pigweed (Amaranthus retroflexus)
Summary of the method: as §1

[9] = system: winter wheat (Triticum aestivum)
Summary of the method: as §1

[10] = system: oilseed rape (Brassica napus)
Summary of the method: as §1

[11] = system: lambsquarters (Chenopodium album)
Summary of the method: as §1

[12] = system: wild buckwheat (Polygonum convolvulus)
Summary of the method: as §1

[13] = system: field poppy (Papaver rhoeas)
Summary of the method: as §1

[14] = system: downy bromegrass (Bromus tectorum)
Summary of the method: as §1

Compound: N#Cc1cccc(Oc2ncc(Cl)cn2)c1Oc1ncc(Cl)cn1 [Compound 3, 2,3-bis[(5-chloro-2-pyrimidinyl)oxy]benzonitrile]
- Plant response rating, Deadnettle ([1]; 16 g ai/ha): 70
- Plant response rating, Deadnettle ([1]; 31 g ai/ha): 95
- Plant response rating, Deadnettle ([1]; 62 g ai/ha): 100
- Plant response rating, Deadnettle ([1]; 125 g ai/ha): 100
- Plant response rating, Chickweed ([2]; 16 g ai/ha): 100
- Plant response rating, Chickweed ([2]; 31 g ai/ha): 100
- Plant response rating, Chickweed ([2]; 62 g ai/ha): 100
- Plant response rating, Chickweed ([2]; 125 g ai/ha): 100
- Plant response rating, Barley, Spring ([3]; 16 g ai/ha): 0
- Plant response rating, Barley, Spring ([3]; 31 g ai/ha): 0
- Plant response rating, Barley, Spring ([3]; 62 g ai/ha): 0
- Plant response rating, Barley, Spring ([3]; 125 g ai/ha): 40
- Plant response rating, Chamomile ([4]; 16 g ai/ha): 10
- Plant response rating, Chamomile ([4]; 31 g ai/ha): 20
- Plant response rating, Chamomile ([4]; 62 g ai/ha): 35
- Plant response rating, Chamomile ([4]; 125 g ai/ha): 85
- Plant response rating, Canarygrass ([5]; 16 g ai/ha): 0
- Plant response rating, Canarygrass ([5]; 31 g ai/ha): 5
- Plant response rating, Canarygrass ([5]; 62 g ai/ha): 20
- Plant response rating, Canarygrass ([5]; 125 g ai/ha): 80
- Plant response rating, Kochia ([6]; 16 g ai/ha): 100
- Plant response rating, Kochia ([6]; 31 g ai/ha): 100
- Plant response rating, Kochia ([6]; 62 g ai/ha): 100
- Plant response rating, Kochia ([6]; 125 g ai/ha): 100
- Plant response rating, Bluegrass ([7]; 16 g ai/ha): 0
- Plant response rating, Bluegrass ([7]; 31 g ai/ha): 0
- Plant response rating, Bluegrass ([7]; 62 g ai/ha): 25
- Plant response rating, Bluegrass ([7]; 125 g ai/ha): 85
- Plant response rating, Pigweed ([8]; 16 g ai/ha): 100
- Plant response rating, Pigweed ([8]; 31 g ai/ha): 100
- Plant response rating, Pigweed ([8]; 62 g ai/ha): 100
- Plant response rating, Pigweed ([8]; 125 g ai/ha): 100
- Plant response rating, Wheat, Winter ([9]; 16 g ai/ha): 0
- Plant response rating, Wheat, Winter ([9]; 31 g ai/ha): 0
- Plant response rating, Wheat, Winter ([9]; 62 g ai/ha): 5
- Plant response rating, Wheat, Winter ([9]; 125 g ai/ha): 10
- Plant response rating, Oilseed Rape ([10]; 16 g ai/ha): 10
- Plant response rating, Oilseed Rape ([10]; 31 g ai/ha): 25
- Plant response rating, Oilseed Rape ([10]; 62 g ai/ha): 35
- Plant response rating, Oilseed Rape ([10]; 125 g ai/ha): 100
- Plant response rating, Lambsquarters ([11]; 16 g ai/ha): 10
- Plant response rating, Lambsquarters ([11]; 31 g ai/ha): 95
- Plant response rating, Lambsquarters ([11]; 62 g ai/ha): 100
- Plant response rating, Lambsquarters ([11]; 125 g ai/ha): 100
- Plant response rating, Buckwheat, Wild ([12]; 16 g ai/ha): 0
- Plant response rating, Buckwheat, Wild ([12]; 31 g ai/ha): 30
- Plant response rating, Buckwheat, Wild ([12]; 62 g ai/ha): 75
- Plant response rating, Buckwheat, Wild ([12]; 125 g ai/ha): 100
- Plant response rating, Field Poppy ([13]; 16 g ai/ha): 90
- Plant response rating, Field Poppy ([13]; 31 g ai/ha): 100
- Plant response rating, Field Poppy ([13]; 62 g ai/ha): 100
- Plant response rating, Field Poppy ([13]; 125 g ai/ha): 100
- Plant response rating, Bromegrass, Downy ([14]; 16 g ai/ha): 0
- Plant response rating, Bromegrass, Downy ([14]; 31 g ai/ha): 0
- Plant response rating, Bromegrass, Downy ([14]; 62 g ai/ha): 5
- Plant response rating, Bromegrass, Downy ([14]; 125 g ai/ha): 15

Compound: Fc1cnc(Oc2c(Br)cccc2Oc2ncc(Cl)cn2)nc1 [Compound 22]
- Plant response rating, Deadnettle ([1]; 16 g ai/ha): 20
- Plant response rating, Deadnettle ([1]; 31 g ai/ha): 60
- Plant response rating, Deadnettle ([1]; 62 g ai/ha): 85
- Plant response rating, Deadnettle ([1]; 125 g ai/ha): 100
- Plant response rating, Chickweed ([2]; 16 g ai/ha): 10
- Plant response rating, Chickweed ([2]; 31 g ai/ha): 25
- Plant response rating, Chickweed ([2]; 62 g ai/ha): 100
- Plant response rating, Chickweed ([2]; 125 g ai/ha): 100
- Plant response rating, Barley, Spring ([3]; 16 g ai/ha): 0
- Plant response rating, Barley, Spring ([3]; 31 g ai/ha): 5
- Plant response rating, Barley, Spring ([3]; 62 g ai/ha): 15
- Plant response rating, Barley, Spring ([3]; 125 g ai/ha): 65
- Plant response rating, Chamomile ([4]; 16 g ai/ha): 30
- Plant response rating, Chamomile ([4]; 31 g ai/ha): 40
- Plant response rating, Chamomile ([4]; 62 g ai/ha): 55
- Plant response rating, Chamomile ([4]; 125 g ai/ha): 100
- Plant response rating, Canarygrass ([5]; 16 g ai/ha): 10
- Plant response rating, Canarygrass ([5]; 31 g ai/ha): 25
- Plant response rating, Canarygrass ([5]; 62 g ai/ha): 35
- Plant response rating, Canarygrass ([5]; 125 g ai/ha): 55
- Plant response rating, Kochia ([6]; 16 g ai/ha): 0
- Plant response rating, Kochia ([6]; 31 g ai/ha): 10
- Plant response rating, Kochia ([6]; 62 g ai/ha): 20
- Plant response rating, Kochia ([6]; 125 g ai/ha): 70
- Plant response rating, Bluegrass ([7]; 16 g ai/ha): 0
- Plant response rating, Bluegrass ([7]; 31 g ai/ha): 20
- Plant response rating, Bluegrass ([7]; 62 g ai/ha): 60
- Plant response rating, Bluegrass ([7]; 125 g ai/ha): 90
- Plant response rating, Pigweed ([8]; 16 g ai/ha): 75
- Plant response rating, Pigweed ([8]; 31 g ai/ha): 70
- Plant response rating, Pigweed ([8]; 62 g ai/ha): 100
- Plant response rating, Pigweed ([8]; 125 g ai/ha): 100
- Plant response rating, Wheat, Winter ([9]; 16 g ai/ha): 0
- Plant response rating, Wheat, Winter ([9]; 31 g ai/ha): 0
- Plant response rating, Wheat, Winter ([9]; 62 g ai/ha): 5
- Plant response rating, Wheat, Winter ([9]; 125 g ai/ha): 40
- Plant response rating, Oilseed Rape ([10]; 16 g ai/ha): 30
- Plant response rating, Oilseed Rape ([10]; 31 g ai/ha): 40
- Plant response rating, Oilseed Rape ([10]; 62 g ai/ha): 70
- Plant response rating, Oilseed Rape ([10]; 125 g ai/ha): 90
- Plant response rating, Lambsquarters ([11]; 16 g ai/ha): 20
- Plant response rating, Lambsquarters ([11]; 31 g ai/ha): 85
- Plant response rating, Lambsquarters ([11]; 62 g ai/ha): 100
- Plant response rating, Lambsquarters ([11]; 125 g ai/ha): 100
- Plant response rating, Buckwheat, Wild ([12]; 16 g ai/ha): 10
- Plant response rating, Buckwheat, Wild ([12]; 31 g ai/ha): 10
- Plant response rating, Buckwheat, Wild ([12]; 62 g ai/ha): 15
- Plant response rating, Buckwheat, Wild ([12]; 125 g ai/ha): 85
- Plant response rating, Field Poppy ([13]; 16 g ai/ha): 65
- Plant response rating, Field Poppy ([13]; 31 g ai/ha): 95
- Plant response rating, Field Poppy ([13]; 62 g ai/ha): 100
- Plant response rating, Field Poppy ([13]; 125 g ai/ha): 100
- Plant response rating, Bromegrass, Downy ([14]; 16 g ai/ha): 15
- Plant response rating, Bromegrass, Downy ([14]; 31 g ai/ha): 25
- Plant response rating, Bromegrass, Downy ([14]; 62 g ai/ha): 30
- Plant response rating, Bromegrass, Downy ([14]; 125 g ai/ha): 35

Compound: Fc1cccc(Oc2ncc(C(F)(F)F)cn2)c1Oc1ncc(Cl)cn1 [Compound 42, 5-chloro-2-[2-fluoro-6-[[5-(trifluoromethyl)-2-pyrimidinyl]oxy]phenoxy]pyrimidine]
- Plant response rating, Deadnettle ([1]; 16 g ai/ha): 70
- Plant response rating, Deadnettle ([1]; 31 g ai/ha): 85
- Plant response rating, Deadnettle ([1]; 62 g ai/ha): 100
- Plant response rating, Deadnettle ([1]; 125 g ai/ha): 100
- Plant response rating, Chickweed ([2]; 16 g ai/ha): 70
- Plant response rating, Chickweed ([2]; 31 g ai/ha): 100
- Plant response rating, Chickweed ([2]; 62 g ai/ha): 100
- Plant response rating, Chickweed ([2]; 125 g ai/ha): 100
- Plant response rating, Barley, Spring ([3]; 16 g ai/ha): 0
- Plant response rating, Barley, Spring ([3]; 31 g ai/ha): 35
- Plant response rating, Barley, Spring ([3]; 62 g ai/ha): 15
- Plant response rating, Barley, Spring ([3]; 125 g ai/ha): 65
- Plant response rating, Canarygrass ([5]; 16 g ai/ha): 15
- Plant response rating, Canarygrass ([5]; 31 g ai/ha): 35
- Plant response rating, Canarygrass ([5]; 62 g ai/ha): 35
- Plant response rating, Canarygrass ([5]; 125 g ai/ha): 100
- Plant response rating, Kochia ([6]; 16 g ai/ha): 35
- Plant response rating, Kochia ([6]; 31 g ai/ha): 65
- Plant response rating, Kochia ([6]; 62 g ai/ha): 100
- Plant response rating, Kochia ([6]; 125 g ai/ha): 100
- Plant response rating, Bluegrass ([7]; 16 g ai/ha): 10
- Plant response rating, Bluegrass ([7]; 31 g ai/ha): 0
- Plant response rating, Bluegrass ([7]; 62 g ai/ha): 45
- Plant response rating, Bluegrass ([7]; 125 g ai/ha): 90
- Plant response rating, Pigweed ([8]; 16 g ai/ha): 100
- Plant response rating, Pigweed ([8]; 31 g ai/ha): 100
- Plant response rating, Pigweed ([8]; 62 g ai/ha): 100
- Plant response rating, Pigweed ([8]; 125 g ai/ha): 100
- Plant response rating, Wheat, Winter ([9]; 16 g ai/ha): 0
- Plant response rating, Wheat, Winter ([9]; 31 g ai/ha): 0
- Plant response rating, Wheat, Winter ([9]; 62 g ai/ha): 0
- Plant response rating, Wheat, Winter ([9]; 125 g ai/ha): 50
- Plant response rating, Oilseed Rape ([10]; 16 g ai/ha): 50
- Plant response rating, Oilseed Rape ([10]; 31 g ai/ha): 70
- Plant response rating, Oilseed Rape ([10]; 62 g ai/ha): 100
- Plant response rating, Oilseed Rape ([10]; 125 g ai/ha): 100
- Plant response rating, Lambsquarters ([11]; 16 g ai/ha): 85
- Plant response rating, Lambsquarters ([11]; 31 g ai/ha): 100
- Plant response rating, Lambsquarters ([11]; 62 g ai/ha): 100
- Plant response rating, Lambsquarters ([11]; 125 g ai/ha): 100
- Plant response rating, Buckwheat, Wild ([12]; 16 g ai/ha): 0
- Plant response rating, Buckwheat, Wild ([12]; 31 g ai/ha): 0
- Plant response rating, Buckwheat, Wild ([12]; 62 g ai/ha): 100
- Plant response rating, Buckwheat, Wild ([12]; 125 g ai/ha): 100
- Plant response rating, Bromegrass, Downy ([14]; 16 g ai/ha): 0
- Plant response rating, Bromegrass, Downy ([14]; 31 g ai/ha): 10
- Plant response rating, Bromegrass, Downy ([14]; 62 g ai/ha): 50
- Plant response rating, Bromegrass, Downy ([14]; 125 g ai/ha): 65
